# Experimental data from paper PMC5860131, “Identification of natural products as novel ligands for the human 5-HT2C receptor” (Biophysics Reports, 2018).
# How the values were obtained:
# [1] = target: T1, 5-HT2A receptor (Homo sapiens, UniProt P28223); test: Ca2+ mobilization assay (Fluo-4, FLIPR), HEK 293T cells stably transfected with 5-HT2A; format: cell-based; conditions: agonist mode, up to 30,000 nmol/L
# T1 construct: expressed in transfected cells; host or cells: HEK 293T, stably transfected
# T1 sequence (P28223 whole entry): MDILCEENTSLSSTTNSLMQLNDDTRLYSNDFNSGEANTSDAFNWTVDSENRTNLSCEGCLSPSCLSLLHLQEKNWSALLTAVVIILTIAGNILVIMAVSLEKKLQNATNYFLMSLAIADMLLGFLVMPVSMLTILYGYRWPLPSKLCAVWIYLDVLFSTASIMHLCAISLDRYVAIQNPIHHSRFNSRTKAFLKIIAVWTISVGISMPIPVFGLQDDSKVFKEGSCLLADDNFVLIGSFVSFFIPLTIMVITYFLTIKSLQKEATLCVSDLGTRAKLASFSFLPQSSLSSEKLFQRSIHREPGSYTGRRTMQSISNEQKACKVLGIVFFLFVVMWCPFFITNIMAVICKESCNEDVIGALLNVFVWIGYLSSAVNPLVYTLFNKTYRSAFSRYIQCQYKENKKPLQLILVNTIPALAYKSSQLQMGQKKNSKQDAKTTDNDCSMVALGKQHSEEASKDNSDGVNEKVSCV
# Source text: (§1) The 5-HT2C receptor mainly couples to Gαq proteins. The activated 5-HT2C receptor transmits the signals from the extracellular to the intercellular side using DAG/IP3 (diacyl glycerol/inositol 1,4,5-trisphosphate) as its second massagers (Hannon and Hoyer [2008]). IP3 stimulates the endoplasmic reticulum to release calcium ions into the cytoplasm, which causes the increase of calcium concentration in cytosol. Therefore, calcium mobilization assay is commonly applied to understand how unknown small molecule ligands of 5-HT2C receptor modulate cellular signal transductions. In this case, Fluo-4 Direct dye was used as a fluorescence indicator to detect calcium flux in G protein-coupled receptor expressed cells. The fold of maximum response over average of basal reading is plotted against compound concentration to determine the potency of the compounds (Fig. 3). […]. […] After the dye loaded, cells were placed in a FLIPR^TETRA fluorescence imaging plate reader (Molecular Devices); drug dilutions, prepared at 3× final concentration in FLIPR buffer and aliquotted into 384-well plates, were also added to the FLIPR^TETRA. The fluidics module and plate reader of the FLIPR^TETRA were programmed to read baseline fluorescence for 10 s (1 read/s), then to add 10 μl of drug/well and to read for 6 min (1 read/s). […]
# [2] = target: T2, 5-HT2B receptor (Homo sapiens, UniProt P41595); test: Ca2+ mobilization assay (Fluo-4, FLIPR), HEK 293T cells stably transfected with 5-HT2B; format: cell-based; conditions: agonist mode, up to 30,000 nmol/L
# T2 construct: expressed in transfected cells; host or cells: HEK 293T, stably transfected
# T2 sequence (P41595 whole entry): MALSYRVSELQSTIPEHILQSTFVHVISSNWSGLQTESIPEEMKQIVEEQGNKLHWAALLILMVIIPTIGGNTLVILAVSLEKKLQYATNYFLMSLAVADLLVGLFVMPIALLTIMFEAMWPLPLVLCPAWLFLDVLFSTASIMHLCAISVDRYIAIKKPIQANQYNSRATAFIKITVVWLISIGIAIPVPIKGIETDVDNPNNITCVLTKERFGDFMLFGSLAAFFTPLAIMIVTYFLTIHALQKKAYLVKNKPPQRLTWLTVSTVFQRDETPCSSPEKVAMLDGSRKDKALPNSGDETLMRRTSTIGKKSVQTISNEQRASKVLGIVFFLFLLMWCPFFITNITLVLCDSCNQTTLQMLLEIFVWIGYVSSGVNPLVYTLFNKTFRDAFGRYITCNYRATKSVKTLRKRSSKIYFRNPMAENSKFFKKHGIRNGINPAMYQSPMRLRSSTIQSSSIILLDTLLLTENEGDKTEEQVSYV
# Source text: as §1
# [3] = target: T3, 5-HT2C receptor (Homo sapiens, UniProt P28335); test: Ca2+ mobilization assay (Fluo-4, FLIPR), HEK 293T cells stably transfected with 5-HT2C; format: cell-based
# T3 construct: expressed in transfected cells; host or cells: HEK 293T, stably transfected
# T3 sequence (P28335 33-458): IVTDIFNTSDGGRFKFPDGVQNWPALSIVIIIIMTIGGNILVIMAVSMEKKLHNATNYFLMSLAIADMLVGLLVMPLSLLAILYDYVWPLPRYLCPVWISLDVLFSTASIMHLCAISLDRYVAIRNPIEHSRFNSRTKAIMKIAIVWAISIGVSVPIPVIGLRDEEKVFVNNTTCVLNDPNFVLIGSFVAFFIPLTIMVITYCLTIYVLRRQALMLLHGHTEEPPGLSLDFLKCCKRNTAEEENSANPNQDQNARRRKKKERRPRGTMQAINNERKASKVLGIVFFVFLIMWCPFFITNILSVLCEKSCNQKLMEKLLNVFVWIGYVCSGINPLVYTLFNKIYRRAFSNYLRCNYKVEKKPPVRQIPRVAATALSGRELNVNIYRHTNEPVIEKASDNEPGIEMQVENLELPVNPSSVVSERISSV
# Source text: The 5-HT2C receptor mainly couples to Gαq proteins. The activated 5-HT2C receptor transmits the signals from the extracellular to the intercellular side using DAG/IP3 (diacyl glycerol/inositol 1,4,5-trisphosphate) as its second massagers (Hannon and Hoyer [2008]). IP3 stimulates the endoplasmic reticulum to release calcium ions into the cytoplasm, which causes the increase of calcium concentration in cytosol. Therefore, calcium mobilization assay is commonly applied to understand how unknown small molecule ligands of 5-HT2C receptor modulate cellular signal transductions. In this case, Fluo-4 Direct dye was used as a fluorescence indicator to detect calcium flux in G protein-coupled receptor expressed cells. The fold of maximum response over average of basal reading is plotted against compound concentration to determine the potency of the compounds (Fig. 3). […]. HEK 293T cells stably transfected with 5-HT2A/2B/2C receptor were seeded in 384-well plates at a density of 15,000 cells/well in DMEM containing 1% dialyzed FBS 8 h before the calcium flux assay. After removing medium, cells were then incubated (20 μl/well) for 1 h at 37 °C with Fluo-4 Direct dye (Invitrogen) reconstituted in FLIPR buffer (1× HBSS, 2.5 mmol/L probenecid, and 20 mmol/L HEPES, pH 7.4). After the dye loaded, cells were placed in a FLIPR^TETRA fluorescence imaging plate reader (Molecular Devices); drug dilutions, prepared at 3× final concentration in FLIPR buffer and aliquotted into 384-well plates, were also added to the FLIPR^TETRA. The fluidics module and plate reader of the FLIPR^TETRA were programmed to read baseline fluorescence for 10 s (1 read/s), then to add 10 μl of drug/well and to read for 6 min (1 read/s). Fluorescence in each well was normalized to the average of the first 10 reads (i.e., baseline fluorescence). Then, the maximum-fold increase, which occurred within 60 s after drug addition, over baseline fluorescence elicited by vehicle or drug was determined. […]
# [4] = target: T4, 5-HT2C receptor (Homo sapiens, UniProt P28335, DEL255-298/G251D/H250E/H252N/INS299[…]/L248D/M247A/M300L/T253W); format: binding; conditions: CPM assay, comparing to apo-protein
# T4 construct: the N- and C-terminals were truncated by 39 and 65 residues, respectively; FLAG (N); PreScission protease site + 10× His (C); made in house; host or cells: Spodoptera frugiperda (Sf9), baculovirus
# T4 sequence (P28335 with tags, fused parts or gaps with the stated changes limits assumed): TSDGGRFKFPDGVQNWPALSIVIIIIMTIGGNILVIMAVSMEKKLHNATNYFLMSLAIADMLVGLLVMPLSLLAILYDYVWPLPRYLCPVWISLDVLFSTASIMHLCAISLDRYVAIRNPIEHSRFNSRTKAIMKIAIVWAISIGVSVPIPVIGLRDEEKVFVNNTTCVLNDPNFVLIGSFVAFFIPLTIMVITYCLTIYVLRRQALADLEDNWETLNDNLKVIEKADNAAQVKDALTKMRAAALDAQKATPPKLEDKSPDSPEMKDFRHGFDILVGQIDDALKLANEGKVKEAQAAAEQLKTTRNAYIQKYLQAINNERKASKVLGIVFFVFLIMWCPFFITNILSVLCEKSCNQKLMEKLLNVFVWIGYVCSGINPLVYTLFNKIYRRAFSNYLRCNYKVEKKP
# [5] = target: T4, 5-HT2C receptor; format: binding
# [6] = test system: cortical pyramidal neurons; test: Whole-cell patch clamp recording of spontaneous synaptic current (SPSC) in brain slices; format: cell-based; conditions: 10 μmol/L; mouse brain slices
# Description: 5-HT receptors play important roles in central and peripheral nervous systems. Malfunctions of these receptors have been linked to many neural disorders such as depression and psychosis. The effect of (–)-crebanine on changes in 5-HT induced synaptic transmission was evaluated by electrophysiological recording of mouse brain slices (Jang et al. [2012]). The spontaneous synaptic current (SPSC) of cortical pyramidal neurons was recorded in whole cell mode.
# Cortical slices from ICR mouse of both genders (15–21 days) were prepared for electrophysiological recording. In brief, the animals were decapitated and brains were placed in cold sucrose artificial cerebrospinal fluid (sucrose-ASCF, in mmol/L: sucrose 213, KCl 2.5, NaH2PO4 1.25, NaHCO3 26, D-glucose 10, MgSO4 2, CaCl2 2, pH 7.4, 0–4 °C, saturated with 95% O2 and 5% CO2). The brains were cut into 280 or 300 μm slices with a vibratome (Leica VT1200S, Germany); slices were then incubated with ACSF (in mmol/L: NaCl 126, KCl 2.5, NaH2PO4 1.25, NaHCO3 26, D-glucose 25, MgSO4 2, CaCl2 2, pH 7.4, saturated with 95% O2 and 5% CO2) at room temperature for 1 h.
# A whole-cell patch clamp technique was used. […] Activity of cortical pyramidal neurons was recorded using an amplifier (HEKA EPC 10 USB, Germany) in the voltage clamp mode. […]
smiles,measurement,setting,value
"COc1ccc2c(c1O)-c1c(OC)c(OC)cc3c1[C@H](C2)N(C)CC3 [Compound 5, (+)-isocorydine]",receptor activation,[1],inactive
same,receptor activation,[2],inactive
same,EC50,[3],2.08 µM
same,Emax,[3]; HEK-293T,16.6%
"COc1cc2cc3c4c(cc(OC)c(OC)c4c2cc1OC)CCN3C [Compound 4, didehydroglaucine]",thermal shift value (∆Tm),[4],< 1.00 °C
"COc1ccc2c(c1O)-c1c(O)c(OC)cc3c1[C@H](C2)[N+](C)(C)CC3 [Compound 3, (+)-magnoflorine]",thermal shift value (∆Tm),[4],< 1.00 °C
"Cc1nc2sccn2c(=O)c1CCN1CCC(=C(c2ccc(F)cc2)c2ccc(F)cc2)CC1 [Ritanserin, ritanserin, reference compound]",S/C,[5],8.39 ± 1.80
same,affinity (in words),[5],high nmol/L range
"COc1cc2c(cc1OC)-c1c3c(cc4c1[C@@H](C2)N(C)CC4)OCO3 [Compound 2, (–)-dicentrine]",thermal shift value (∆Tm),[4],< 1.00 °C
"NCCc1c[nH]c2ccc(O)cc12 [Compound 5-HT, 5-hydroxytryptamine, reference compound]",effect on SPSC,[6],amplified
